Source: patent US6358885B1, “Substituted phenylheterocyclic herbicides” (Mississippi State University, priority 1992, dated 2002)

Key:
sugar beet = test: Test B preemergence/postemergence greenhouse plant response rating 0 to 10; assay type: in vivo, Beta vulgaris; settings: 0 to 10 scale
Method in brief: (§1)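 Postemergence treatment of plants two to eighteen cm tall ran alongside preemergence treatment of planted seed, each using compound in a non-phytotoxic solvent.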

wild oat = test: as above; assay type: in vivo, Avena fatua; settings: 0 to 10 scale
Method in brief: as §1

wheat = test: Test C preemergence/postemergence greenhouse plant response rating 0 to 100; assay type: in vivo, Triticum aestivum
Description: (§2) The compounds evaluated in this test were formulated in a non-phytoxic solvent and applied to the soil surface before plant seedlings emerged (preemergence application), to water that covered the soil surface (flood application), and to plants that were in the one-to-four leaf stage (postemergence application). A sandy loam soil was used for the preemergence and postemergence tests, while a silt loam soil was used in the flood test. Water depth was approximately 2.5 cm for the flood test and was maintained at this level for the duration of the test. Plant species in the preemergence and postemergence tests consisted of barley (Hordeum vulgare), bedstraw (Galium aparine), blackgrass (Alopecurus myosuroides), chickweed (Stellaria media), corn (Zea mays), cotton (Gossypium hirsutum), crabgrass (Digitaria sanguinalis), downy brome (Bromus tectorum), giant foxtail (Setaria faberii), lambsquarters (Chenopodium album), morningglory (Ipomoea hederacea), pigweed ([…]), rape (Brassica napus), ryegrass (Lolium multiflorum), sorghum (Sorghum bicolor), soybean (Glycine max), speedwell (Veronica persica), sugar beet (Beta vulgaris), velvetleaf (Abutilon theophrasti), wheat (Triticum aestivum), wild buckwheat (Polygonum convolvulus), and wild oat (Avena fatua). All plant species were planted one day before application of the compound for the preemergence portion-of this test. Plantings of these species were adjusted to produce plants of appropriate size for the post-emergence portion of the test. […] All plant species were grown using normal greenhouse practices. Visual evaluations of injury expressed on treated plants, when compared to untreated controls, were recorded approximately fourteen to twenty one days after application of the test compound. […] A dash (-) response means no test result.

blackgrass [1] = test: as above; assay type: in vivo, Alopecurus myosuroides; settings: for Plant response rating, Blackgrass: 62 g/ha, 0 to 100 scale
Description: as §2

barnyardgrass = test: Test C flood test plant response rating 0 to 100; assay type: in vivo, Echinochloa crus-galli
Description: as §2

pigweed = test: Test C preemergence/postemergence greenhouse plant response rating 0 to 100; assay type: in vivo, Amaranthusretroflexus; settings: for Plant response rating Pigweed: 62 g/ha, 0 to 100 scale
Description: as §2

cotton = test: as above; assay type: in vivo, Gossypium hirsutum; settings: for Plant response rating, Cotton: 62 g/ha, 0 to 100 scale
Description: as §2

morningglory = test: Test B preemergence/postemergence greenhouse plant response rating 0 to 10; assay type: in vivo, Ipomoea hederacea; settings: 0 to 10 scale
Method in brief: as §1

blackgrass [2] = test: as above; assay type: in vivo, Alopecurus myosuroides; settings: 0 to 10 scale
Method in brief: as §1

cocklebur = test: as above; assay type: in vivo, Xanthium pensylvanicum; settings: 0 to 10 scale
Method in brief: as §1

bedstraw = test: as above; assay type: in vivo, Galium aparine; settings: 0 to 10 scale
Method in brief: as §1

ryegrass = test: Test C preemergence/postemergence greenhouse plant response rating 0 to 100; assay type: in vivo, Lolium multiflorum; settings: for Plant response rating Ryegrass: 62 g/ha, 0 to 100 scale
Description: as §2

For CC(C)Oc1cc(-c2nn3c(c2Br)CCCC3)c(F)cc1Cl [Compound 38], the “Plant response rating, Sugar beet” value (sugar beet; POSTEMERGENCE, Rate 50 g/ha) was 10, the “Plant response rating, Sugar beet” value (sugar beet; PREEMERGENCE, Rate 50 g/ha) was 8 and the “Plant response rating, Sugar beet” value (sugar beet; Rate 200 g/ha, POSTEMERGENCE) was 10. For the same compound, the “Plant response rating, Sugar beet” value (sugar beet; Rate 200 g/ha, PREEMERGENCE) was 10, the “Plant response rating, Wild oat” value (wild oat; POSTEMERGENCE, Rate 50 g/ha) was 3 and the “Plant response rating, Wild oat” value (wild oat; PREEMERGENCE, Rate 50 g/ha) was 0. For the same compound, the “Plant response rating, Wild oat” value (wild oat; Rate 200 g/ha, POSTEMERGENCE) was 5, the “Plant response rating, Wheat” value (wheat; POSTEMERGENCE, 62 g/ha, 0 to 100 scale) was 50 and the “Plant response rating (0 to 100), Wheat” value (wheat; POSTEMERGENCE, Rate 1 g/ha) was 0. The “Plant response rating (0 to 100), Wheat” value (wheat; POSTEMERGENCE, Rate 4 g/ha) was 20, the “Plant response rating (0 to 100), Wheat” value (wheat; PREEMERGENCE, Rate 1 g/ha) was 0 and the “Plant response rating (0 to 100), Wheat” value (wheat; PREEMERGENCE, Rate 4 g/ha) was 0. For the same compound, the “Plant response rating (0 to 100), Wheat” value (wheat; Rate 16 g/ha, POSTEMERGENCE) was 30, the “Plant response rating (0 to 100), Wheat” value (wheat; Rate 16 g/ha, PREEMERGENCE) was 0 and the “Plant response rating, Blackgrass” value (blackgrass [1]; POSTEMERGENCE) was 40. The “Plant response rating (0 to 100), Blackgrass” value (blackgrass [1]; POSTEMERGENCE, Rate 1 g/ha) was 10, the “Plant response rating, Blackgrass” value (blackgrass [1]; PREEMERGENCE) was 30 and the “Plant response rating (0 to 100), Blackgrass” value (blackgrass [1]; PREEMERGENCE, Rate 1 g/ha) was 0. The “Plant response rating (0 to 100), Blackgrass” value (blackgrass [1]; PREEMERGENCE, Rate 4 g/ha) was 0, the “Plant response rating (0 to 100), Blackgrass” value (blackgrass [1]; Rate 4 g/ha, POSTEMERGENCE) was 10 and the “Plant response rating (0 to 100), Blackgrass” value (blackgrass [1]; Rate 16 g/ha, POSTEMERGENCE) was 20. For the same compound, the “Plant response rating (0 to 100), Blackgrass” value (blackgrass [1]; Rate 16 g/ha, PREEMERGENCE) was 0, the “Plant response rating (0 to 100), Barnyardgrass 2” value (barnyardgrass; POSTEMERGENCE section, flood test, Rate 1 g/ha) was 10 and the “Plant response rating (0 to 100), Barnyardgrass 2” value (barnyardgrass; Rate 4 g/ha, under POSTEMERGENCE head (flood test species)) was 20. For the same compound, the “Plant response rating (0 to 100), Barnyardgrass 2” value (barnyardgrass; Rate 16 g/ha, under POSTEMERGENCE head (flood test species)) was 75, the “Plant response rating Barnyardgrass 2” value (barnyardgrass; flood test species listed under POSTEMERGENCE, 62 g/ha, 0 to 100 scale) was 100 and the “Plant response rating Pigweed” value (pigweed; POSTEMERGENCE) was 100. The “Plant response rating (0 to 100), Pigweed” value (pigweed; POSTEMERGENCE, Rate 1 g/ha) was 10, the “Plant response rating (0 to 100), Pigweed” value (pigweed; POSTEMERGENCE, Rate 4 g/ha) was 30 and the “Plant response rating Pigweed” value (pigweed; PREEMERGENCE) was 100. The “Plant response rating (0 to 100), Pigweed” value (pigweed; PREEMERGENCE, Rate 1 g/ha) was 0, the “Plant response rating (0 to 100), Pigweed” value (pigweed; PREEMERGENCE, Rate 4 g/ha) was 0 and the “Plant response rating (0 to 100), Pigweed” value (pigweed; Rate 16 g/ha, POSTEMERGENCE) was 100. For the same compound, the “Plant response rating (0 to 100), Pigweed” value (pigweed; Rate 16 g/ha, PREEMERGENCE) was 90, the “Plant response rating, Cotton” value (cotton; POSTEMERGENCE) was 100 and the “Plant response rating (0 to 100), Cotton” value (cotton; POSTEMERGENCE, Rate 1 g/ha) was 60. The “Plant response rating (0 to 100), Cotton” value (cotton; POSTEMERGENCE, Rate 4 g/ha) was 80, the “Plant response rating, Cotton” value (cotton; PREEMERGENCE) was 0 and the “Plant response rating (0 to 100), Cotton” value (cotton; PREEMERGENCE, Rate 1 g/ha) was 0. For the same compound, the “Plant response rating (0 to 100), Cotton” value (cotton; PREEMERGENCE, Rate 4 g/ha) was 0, the “Plant response rating (0 to 100), Cotton” value (cotton; Rate 16 g/ha, POSTEMERGENCE) was 90 and the “Plant response rating (0 to 100), Cotton” value (cotton; Rate 16 g/ha, PREEMERGENCE) was 0. For the same compound, the “Plant response rating, Morningglory” value (morningglory; POSTEMERGENCE, Rate 50 g/ha) was 8, the “Plant response rating, Morningglory” value (morningglory; PREEMERGENCE, Rate 50 g/ha) was 0 and the “Plant response rating, Morningglory” value (morningglory; Rate 200 g/ha, POSTEMERGENCE) was 9. For the same compound, the “Plant response rating, Morningglory” value (morningglory; Rate 200 g/ha, PREEMERGENCE) was 4, the “Plant response rating, Blackgrass” value (blackgrass [2]; POSTEMERGENCE, Rate 50 g/ha) was 3 and the “Plant response rating, Blackgrass” value (blackgrass [2]; POSTEMERGENCE, Rate 200 g/ha) was 7. The “Plant response rating, Blackgrass” value (blackgrass [2]; PREEMERGENCE, Rate 50 g/ha) was 1, the “Plant response rating, Blackgrass” value (blackgrass [2]; Rate 200 g/ha, PREEMERGENCE) was 1 and the “Plant response rating, Cocklebur” value (cocklebur; POSTEMERGENCE, Rate 50 g/ha) was 8. The “Plant response rating, Cocklebur” value (cocklebur; POSTEMERGENCE, Rate 200 g/ha) was 10, the “Plant response rating, Cocklebur” value (cocklebur; PREEMERGENCE, Rate 50 g/ha) was 0 and the “Plant response rating, Cocklebur” value (cocklebur; Rate 200 g/ha, PREEMERGENCE) was 5. The “Plant response rating, Bedstraw” value (bedstraw; POSTEMERGENCE, Rate 200 g/ha) was 10, the “Plant response rating, Bedstraw” value (bedstraw; PREEMERGENCE, Rate 50 g/ha) was 0 and the “Plant response rating, Bedstraw” value (bedstraw; Rate 200 g/ha, PREEMERGENCE) was 7. For the same compound, the “Plant response rating Ryegrass” value (ryegrass; POSTEMERGENCE) was 50, the “Plant response rating (0 to 100), Ryegrass” value (ryegrass; POSTEMERGENCE, Rate 1 g/ha) was 0 and the “Plant response rating (0 to 100), Ryegrass” value (ryegrass; POSTEMERGENCE, Rate 4 g/ha) was 10. The “Plant response rating Ryegrass” value (ryegrass; PREEMERGENCE) was 0, the “Plant response rating (0 to 100), Ryegrass” value (ryegrass; PREEMERGENCE, Rate 1 g/ha) was 0 and the “Plant response rating (0 to 100), Ryegrass” value (ryegrass; PREEMERGENCE, Rate 4 g/ha) was 0. For the same compound, the “Plant response rating (0 to 100), Ryegrass” value (ryegrass; Rate 16 g/ha, POSTEMERGENCE) was 30 and the “Plant response rating (0 to 100), Ryegrass” value (ryegrass; Rate 16 g/ha, PREEMERGENCE) was 0.
